Earlier results in US7129073B2, “Regulation of neuronal function through metabotropic glutamate receptor signaling pathways” (The Rockefeller University, priority 2001, dated 2006).

Target: T1, T-cell protein-tyrosine phosphatase (TC PTP) (Homo sapiens, UniProt P17706)
T1 sequence (P17706 1-415): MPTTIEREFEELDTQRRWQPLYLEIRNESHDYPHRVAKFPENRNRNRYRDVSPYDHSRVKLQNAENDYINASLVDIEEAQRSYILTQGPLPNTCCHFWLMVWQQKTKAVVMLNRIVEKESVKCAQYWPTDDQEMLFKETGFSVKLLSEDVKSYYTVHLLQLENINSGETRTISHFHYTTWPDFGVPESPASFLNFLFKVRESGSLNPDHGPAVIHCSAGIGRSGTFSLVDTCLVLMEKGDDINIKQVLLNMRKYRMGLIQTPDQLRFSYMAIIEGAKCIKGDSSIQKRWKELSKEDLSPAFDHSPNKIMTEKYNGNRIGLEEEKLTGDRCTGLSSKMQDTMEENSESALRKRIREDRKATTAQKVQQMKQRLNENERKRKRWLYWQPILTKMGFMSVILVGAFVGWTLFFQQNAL
Conditions: cited from earlier work

SMILES: [Na+].[Na+].[Na+].[O]=[V]([O-])([O-])[O-] [Na3VO4]
- effect on TC PTP-dependent change in polarization (50 μM Na3VO4): inhibited
- IC50 (FP-based direct binding assay): 4 nM
